According to patent publication US10856562B2, “Flavor composition and edible compositions containing same” (MARS, INCORPORATED, priority 2013, dated 2020):
Square brackets hold non-standard residues; d marks the D form. Ends that are not written are not given here. pGlu = O=C1CC[C@@H](C(=O)O)N1

System: panelists
Test: Consensus attribute scores of flavor enhancers in Uncle Ben's Garden Vegetable Ready rice
Format: in vivo, human
Set-up: key to Cooked White Rice / Vegetable Oil / Vegetable Complex / Cooked Green Vegetable / Cooked Corn / Sweet (BASIC TASTES) / Salt (BASIC TASTES) / Mouthdrying (Texture) / Residual Mouthcoating (Texture) / Total Aromatics / Bitter (BASIC TASTES): 15-point scale, 0 = none, 15 = very strong
Settings: for Black Pepper / Cooked Corn / Cooked Green Vegetable / Cooked White Rice / Dehydrated onion/garlic / HVP/Brothy / Heat (Chemical Feeling Factors) / Mineral/Flint / Mouthdrying (Texture) / Residual Mouthcoating (Texture) / Salt (BASIC TASTES) / Sweet (BASIC TASTES) / Total Aromatics / Umami (Chemical Feeling Factors) / Vegetable Complex / Vegetable Oil / Bitter (BASIC TASTES) / Salt Burn (Chemical Feeling Factors): rice
Description: Descriptive attributes (e.g., taste, flavor and chemical feeling factors) of three use levels of pGlu-Cys (FE-35), pGlu-Cys-Gly (FE-36), pGlu-Cys-Cys (FE-37), pGlu-Cys-Val (FE-38) and pGlu-Val-Cys (UE-30) flavor composition peptides were determined. The three use levels were as follows: 1.0 ppb, 10.0 ppb and 100.0 ppb.
Data was collected for the attributes of the product in-mouth for the use levels according to the following protocol: • The samples were analyzed for flavor by six to nine members of a panel, trained and experienced in flavor evaluation using the Spectrum™ method. Samples were evaluated across multiple panel sessions. • The strength of each attribute was rated on a 15-point scale, where 0=none and 15=very strong. • This scale incorporates the ability to use tenths of a point and therefore has the potential of 150 scale differentiations. • The scale may be expanded beyond 15 points to include extreme ratings if necessary.
Preparation of Rice Samples • Each flavor enhancer was tested in Uncle Ben's Garden Vegetable Ready rice matrix at 3 different concentrations: 1 ppb, 10 ppb and 100 ppb. A total of 15 points with flavor enhancers were prepared for sensory evaluation. Additionally, 15 control samples were prepared. Each point had 2 samples (test and control) and was made from one pouch of rice. • Directions to prepare the solutions: • The 15 ready- to eat pouches were microwaved according to the procedure found on the back of the pouch: (1) squeeze pouch to separate rice, (2) tear two inches to vent, (3) heat on High for 90 seconds and (4) remove from microwave using COOL TOUCH area on untorn side. • From each pouch 124.75 g (test sample) and 99.8 g (control) were weighed out. The test sample had the flavor enhancer and/or salt. The control sample only had salt added. • The flavor enhancer and/or salt (non-iodized salt) were weighed in a soufflé cup. The weighed amount of flavor enhancer and/or salt was added to the sub-sampled rice. The rice was stirred and mixed to evenly distribute the salt added. • Some rice was placed back into the soufflé cup, sealed, and the cup was shook to get the flavor enhancer and/or salt that may have been stuck on the walls of the soufflé cup. After shaking the soufflé cup, the rice was added back to the original sub-sampled rice and stirred/mixed again. • Each sample (test and control) was microwaved for another 30 seconds (or until warm) to ensure that the salts/compounds were going completely into the solutions. • All samples (test and control) were tasted at the same temperature. • Each test sample had 0.2% NaCl added and flavor enhancers at the specified concentrations.
A summary of the concentrations of NaCl and flavor composition peptides in the rice samples is described in table 23. The first value of each cell represents a single sample amount of an ingredient in milligrams, and the second number in parenthesis is a doubling of the ingredient (in grams) for use in a doubled size sample.
The panelists evaluated each sample for the attributes described by table 25.

[pGlu]-Cys [FE-35]
Umami feeling factor in rice compared to the Control (10 & 100 ppb): higher | Salt in rice compared to the Control (100 ppb): saltier than the Control | Heat in rice, not seen in the Control (all concentrations): low level | Cooked green vegetable in rice compared to the Control (all samples (1, 10, 100 ppb)): low level of cooked green vegetable | Mouthdrying in rice, not seen in the Control (all samples (1, 10, 100 ppb)): low level | Total aromatics in rice (at 50 ppm): slightly lower | Black Pepper (1.0 ppb (5 ppm)): 1.0 | Cooked Corn (1.0 ppb (5 ppm)): 0.5 | Cooked Green Vegetable (1.0 ppb (5 ppm)): 0.5 | Cooked White Rice (1.0 ppb (5 ppm)): 3.0 | Dehydrated onion/garlic (1.0 ppb (5 ppm)): 0.8 | HVP/Brothy (1.0 ppb (5 ppm)): 1.0 | Heat (Chemical Feeling Factors) (1.0 ppb (5 ppm)): 0.8 | Mineral/Flint (1.0 ppb (5 ppm)): 0.8 | Mouthdrying (Texture) (1.0 ppb (5 ppm)): 1.5 | Residual Mouthcoating (Texture) (1.0 ppb (5 ppm)): 1.0 | Salt (BASIC TASTES) (1.0 ppb (5 ppm)): 13.0 | Sweet (BASIC TASTES) (1.0 ppb (5 ppm)): 3.5 | Total Aromatics (1.0 ppb (5 ppm)): 6.3 | Umami (Chemical Feeling Factors) (1.0 ppb (5 ppm)): 1.0 | Vegetable Complex (1.0 ppb (5 ppm)): 1.0 | Vegetable Oil (1.0 ppb (5 ppm)): 0.5 | Black Pepper (10.0 ppb (50 ppm)): 0.8 | Cooked Corn (10.0 ppb (50 ppm)): 0.8 | Cooked Green Vegetable (10.0 ppb (50 ppm)): 0.8 | Cooked White Rice (10.0 ppb (50 ppm)): 3.0 | Dehydrated onion/garlic (10.0 ppb (50 ppm)): 0.8 | HVP/Brothy (10.0 ppb (50 ppm)): 1.0 | Heat (Chemical Feeling Factors) (10.0 ppb (50 ppm)): 0.5 | Mineral/Flint (10.0 ppb (50 ppm)): 1.3 | Mouthdrying (Texture) (10.0 ppb (50 ppm)): 1.0 | Residual Mouthcoating (Texture) (10.0 ppb (50 ppm)): 1.0 | Salt (BASIC TASTES) (10.0 ppb (50 ppm)): 13.5 | Sweet (BASIC TASTES) (10.0 ppb (50 ppm)): 3.5 | Total Aromatics (10.0 ppb (50 ppm)): 6.0 | Umami (Chemical Feeling Factors) (10.0 ppb (50 ppm)): 3.0 | Vegetable Complex (10.0 ppb (50 ppm)): 1.3 | Vegetable Oil (10.0 ppb (50 ppm)): 0.5 | Black Pepper (100 ppb (50 ppm)): 1.0 | Cooked Corn (100 ppb (50 ppm)): 0.8 | Cooked Green Vegetable (100 ppb (50 ppm)): 0.8 | Cooked White Rice (100 ppb (50 ppm)): 3.0 | Dehydrated onion/garlic (100 ppb (50 ppm)): 1.0 | HVP/Brothy (100 ppb (50 ppm)): 1.0 | Heat (Chemical Feeling Factors) (100 ppb (50 ppm)): 0.5 | Mineral/Flint (100 ppb (50 ppm)): 1.0 | Mouthdrying (Texture) (100 ppb (50 ppm)): 1.0 | Residual Mouthcoating (Texture) (100 ppb (50 ppm)): 1.0 | Salt (BASIC TASTES) (100 ppb (50 ppm)): 15.0 | Sweet (BASIC TASTES) (100 ppb (50 ppm)): 3.5 | Total Aromatics (100 ppb (50 ppm)): 6.5 | Umami (Chemical Feeling Factors) (100 ppb (50 ppm)): 4.0 | Vegetable Complex (100 ppb (50 ppm)): 1.5 | Vegetable Oil (100 ppb (50 ppm)): 0.8

[pGlu]-Cys-Cys (cysteine pairing not given here) [FE-37]
Bitter in rice (all samples (1, 10, 100 ppb)): low in bitter | Cooked green vegetable in rice compared to the Control (all samples (1, 10, 100 ppb)): low level of cooked green vegetable | Mineral/flint note in rice, not seen in the Control (all samples (1, 10, 100 ppb)): low mineral/flint note | Mouthdrying in rice, not seen in the Control (all samples (1, 10, 100 ppb)): have mouthdrying | Salt burn feeling factor in rice compared to the Control (all samples (1, 10, 100 ppb)): higher | Salt in rice compared to the Control (all samples (1, 10, 100 ppb)): saltier than the Control | Umami feeling factor in rice compared to the Control (all samples (1, 10, 100 ppb)): higher | Bitter (BASIC TASTES) (1.0 ppb (5 ppm)): 0.8 | Black Pepper (1.0 ppb (5 ppm)): 1.0 | Cooked Corn (1.0 ppb (5 ppm)): 0.5 | Cooked Green Vegetable (1.0 ppb (5 ppm)): 0.5 | Cooked White Rice (1.0 ppb (5 ppm)): 3.0 | Dehydrated onion/garlic (1.0 ppb (5 ppm)): 1.3 | HVP/Brothy (1.0 ppb (5 ppm)): 1.0 | Mineral/Flint (1.0 ppb (5 ppm)): 0.8 | Mouthdrying (Texture) (1.0 ppb (5 ppm)): 1.0 | Residual Mouthcoating (Texture) (1.0 ppb (5 ppm)): 1.0 | Salt (BASIC TASTES) (1.0 ppb (5 ppm)): 15.0 | Salt Burn (Chemical Feeling Factors) (1.0 ppb (5 ppm)): 0.8 | Sweet (BASIC TASTES) (1.0 ppb (5 ppm)): 3.0 | Total Aromatics (1.0 ppb (5 ppm)): 6.0 | Umami (Chemical Feeling Factors) (1.0 ppb (5 ppm)): 1.5 | Vegetable Complex (1.0 ppb (5 ppm)): 1.0 | Vegetable Oil (1.0 ppb (5 ppm)): 0.8 | Bitter (BASIC TASTES) (10.0 ppb (50 ppm)): 1.5 | Black Pepper (10.0 ppb (50 ppm)): 1.0 | Cooked Corn (10.0 ppb (50 ppm)): 0.5 | Cooked Green Vegetable (10.0 ppb (50 ppm)): 0.5 | Cooked White Rice (10.0 ppb (50 ppm)): 3.0 | Dehydrated onion/garlic (10.0 ppb (50 ppm)): 1.5 | HVP/Brothy (10.0 ppb (50 ppm)): 1.5 | Mineral/Flint (10.0 ppb (50 ppm)): 0.8 | Mouthdrying (Texture) (10.0 ppb (50 ppm)): 1.5 | Residual Mouthcoating (Texture) (10.0 ppb (50 ppm)): 1.0 | Salt (BASIC TASTES) (10.0 ppb (50 ppm)): 15.5 | Salt Burn (Chemical Feeling Factors) (10.0 ppb (50 ppm)): 1.3 | Sweet (BASIC TASTES) (10.0 ppb (50 ppm)): 3.5 | Total Aromatics (10.0 ppb (50 ppm)): 6.5 | Umami (Chemical Feeling Factors) (10.0 ppb (50 ppm)): 2.5 | Vegetable Complex (10.0 ppb (50 ppm)): 1.0 | Vegetable Oil (10.0 ppb (50 ppm)): 0.8 | Bitter (BASIC TASTES) (100 ppb (50 ppm)): 1.0 | Black Pepper (100 ppb (50 ppm)): 1.0 | Cooked Corn (100 ppb (50 ppm)): 0.8 | Cooked Green Vegetable (100 ppb (50 ppm)): 0.8 | Cooked White Rice (100 ppb (50 ppm)): 3.0 | Dehydrated onion/garlic (100 ppb (50 ppm)): 1.5 | HVP/Brothy (100 ppb (50 ppm)): 1.5 | Mineral/Flint (100 ppb (50 ppm)): 1.0 | Mouthdrying (Texture) (100 ppb (50 ppm)): 1.5 | Residual Mouthcoating (Texture) (100 ppb (50 ppm)): 1.0 | Salt (BASIC TASTES) (100 ppb (50 ppm)): 16.0 | Salt Burn (Chemical Feeling Factors) (100 ppb (50 ppm)): 1.8 | Sweet (BASIC TASTES) (100 ppb (50 ppm)): 3.5 | Total Aromatics (100 ppb (50 ppm)): 6.5 | Umami (Chemical Feeling Factors) (100 ppb (50 ppm)): 3.0 | Vegetable Complex (100 ppb (50 ppm)): 1.5 | Vegetable Oil (100 ppb (50 ppm)): 0.8

[pGlu]-Cys-Gly [FE-36]
Salt burn in rice (100 ppb): low level of salt burn | Bitter in rice (all samples (1, 10, 100 ppb)): slightly bitter | Cooked green vegetable in rice compared to the Control (all samples (1, 10, 100 ppb)): low level of cooked green vegetable | Mouthdrying in rice, not seen in the Control (all samples (1, 10, 100 ppb)): have mouthdrying | Umami feeling factor in rice compared to the Control (all samples (1, 10, 100 ppb)): higher in umami | Bitter (BASIC TASTES) (1.0 ppb (5 ppm)): 0.5 | Black Pepper (1.0 ppb (5 ppm)): 1.0 | Cooked Corn (1.0 ppb (5 ppm)): 1.0 | Cooked Green Vegetable (1.0 ppb (5 ppm)): 0.5 | Cooked White Rice (1.0 ppb (5 ppm)): 3.0 | Dehydrated onion/garlic (1.0 ppb (5 ppm)): 1.0 | HVP/Brothy (1.0 ppb (5 ppm)): 1.0 | Mouthdrying (Texture) (1.0 ppb (5 ppm)): 1.0 | Residual Mouthcoating (Texture) (1.0 ppb (5 ppm)): 1.0 | Salt (BASIC TASTES) (1.0 ppb (5 ppm)): 11.5 | Salt Burn (Chemical Feeling Factors) (1.0 ppb (5 ppm)): 0.0 | Sweet (BASIC TASTES) (1.0 ppb (5 ppm)): 3.5 | Total Aromatics (1.0 ppb (5 ppm)): 6.0 | Umami (Chemical Feeling Factors) (1.0 ppb (5 ppm)): 1.5 | Vegetable Complex (1.0 ppb (5 ppm)): 1.5 | Vegetable Oil (1.0 ppb (5 ppm)): 0.8 | Bitter (BASIC TASTES) (10.0 ppb (50 ppm)): 1.0 | Black Pepper (10.0 ppb (50 ppm)): 1.0 | Cooked Corn (10.0 ppb (50 ppm)): 1.0 | Cooked Green Vegetable (10.0 ppb (50 ppm)): 1.0 | Cooked White Rice (10.0 ppb (50 ppm)): 3.0 | Dehydrated onion/garlic (10.0 ppb (50 ppm)): 1.5 | HVP/Brothy (10.0 ppb (50 ppm)): 1.0 | Mouthdrying (Texture) (10.0 ppb (50 ppm)): 1.5 | Residual Mouthcoating (Texture) (10.0 ppb (50 ppm)): 1.0 | Salt (BASIC TASTES) (10.0 ppb (50 ppm)): 13.5 | Salt Burn (Chemical Feeling Factors) (10.0 ppb (50 ppm)): 0.0 | Sweet (BASIC TASTES) (10.0 ppb (50 ppm)): 3.5 | Total Aromatics (10.0 ppb (50 ppm)): 6.5 | Umami (Chemical Feeling Factors) (10.0 ppb (50 ppm)): 3.0 | Vegetable Complex (10.0 ppb (50 ppm)): 2.0 | Vegetable Oil (10.0 ppb (50 ppm)): 0.8 | Bitter (BASIC TASTES) (100 ppb (50 ppm)): 0.5 | Black Pepper (100 ppb (50 ppm)): 0.8 | Cooked Corn (100 ppb (50 ppm)): 0.8 | Cooked Green Vegetable (100 ppb (50 ppm)): 0.8 | Cooked White Rice (100 ppb (50 ppm)): 3.0 | Dehydrated onion/garlic (100 ppb (50 ppm)): 1.3 | HVP/Brothy (100 ppb (50 ppm)): 1.0 | Mouthdrying (Texture) (100 ppb (50 ppm)): 2.0 | Residual Mouthcoating (Texture) (100 ppb (50 ppm)): 1.0 | Salt (BASIC TASTES) (100 ppb (50 ppm)): 13.5 | Salt Burn (Chemical Feeling Factors) (100 ppb (50 ppm)): 1.0 | Sweet (BASIC TASTES) (100 ppb (50 ppm)): 3.5 | Total Aromatics (100 ppb (50 ppm)): 6.3 | Umami (Chemical Feeling Factors) (100 ppb (50 ppm)): 4.0 | Vegetable Complex (100 ppb (50 ppm)): 1.5 | Vegetable Oil (100 ppb (50 ppm)): 0.8
